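Test compounds were applied to cells in 96-well plates for 48 hours at 5 doses. GI50 = concentration required for 50% inhibition of growth. At the TGI there is no net growth.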
Columns and labels:
Assay in all cases: DTP human tumour cell line panel, 48 h
786-0 renal = tested on: 786-0 renal
COLO 205 colon = tested on: COLO 205 colon
OVCAR-4 ovarian = tested on: OVCAR-4 ovarian
OVCAR-5 ovarian = tested on: OVCAR-5 ovarian
OVCAR-8 ovarian = tested on: OVCAR-8 ovarian
TK-10 renal = tested on: TK-10 renal
UACC-257 melanoma = tested on: UACC-257 melanoma
UACC-62 melanoma = tested on: UACC-62 melanoma
UO-31 renal = tested on: UO-31 renal
NCI/ADR-RES ovarian = tested on: NCI/ADR-RES ovarian

Compound | TGI (786-0 renal) | TGI (COLO 205 colon) | TGI (OVCAR-4 ovarian) | TGI (OVCAR-5 ovarian) | TGI (OVCAR-8 ovarian) | TGI (TK-10 renal) | TGI (UACC-257 melanoma) | TGI (UACC-62 melanoma) | TGI (UO-31 renal) | GI50 (786-0 renal) | GI50 (OVCAR-4 ovarian) | GI50 (OVCAR-5 ovarian) | GI50 (OVCAR-8 ovarian) | GI50 (TK-10 renal) | GI50 (UACC-257 melanoma) | GI50 (UACC-62 melanoma) | GI50 (COLO 205 colon) | GI50 (NCI/ADR-RES ovarian) | TGI (NCI/ADR-RES ovarian) | GI50 (UO-31 renal)
CCCCCC/C(CC(=O)CCC(=O)NCCc1ccccc1)=N\NC(=O)c1ccc2ccccc2c1O | > 100 µM | > 100 µM | > 100 µM | 54.2 µM | > 100 µM | > 100 µM | > 100 µM | 50.8 µM | > 100 µM | – | – | – | – | – | – | – | – | – | – | –
C#Cc1ccccc1N1C(=O)C=CC1=O | > 100 µM | > 100 µM | > 100 µM | > 100 µM | > 100 µM | > 100 µM | > 100 µM | > 100 µM | > 100 µM | – | – | – | – | – | – | – | – | – | – | –
CC(=O)N1CCN(C=S)CC1 | > 100 µM | > 100 µM | > 100 µM | > 100 µM | > 100 µM | > 100 µM | > 100 µM | > 100 µM | > 100 µM | – | – | – | – | – | – | – | – | – | – | –
ClCCCN1CCCCC1CCl (centres undefined) | > 100 µM | > 100 µM | > 100 µM | > 100 µM | > 100 µM | > 100 µM | – | > 100 µM | > 100 µM | – | – | – | – | – | – | – | – | – | – | –
CN(C)c1ccc(/C=c2\sc3nnc(Cc4ccccc4)n3c2=O)cc1 | > 100 µM | > 10 µM | > 100 µM | > 100 µM | > 100 µM | > 100 µM | > 100 µM | > 100 µM | > 100 µM | > 100 µM | > 100 µM | > 100 µM | > 100 µM | > 100 µM | > 100 µM | > 100 µM | – | – | – | –
N#CC1([N+](=O)[O-])C=C1c1ccccc1 (centres undefined) | > 100 µM | > 100 µM | > 100 µM | > 100 µM | > 100 µM | > 100 µM | > 100 µM | 66.3 µM | > 100 µM | – | – | – | – | – | – | – | – | – | – | –
CN/N=C(/CC(=O)c1sc(NNC(C)=O)nc1C)C(=O)Nc1ccc(OC)cc1OC | > 100 µM | > 100 µM | > 100 µM | > 100 µM | > 100 µM | > 100 µM | > 100 µM | > 100 µM | > 100 µM | – | – | – | – | – | – | – | – | – | – | –
OCC(O)C(OC1OC(CO)C(O)C(O)C1O)c1nn(-c2ccc(Cl)cc2)c2nc3cc(Cl)ccc3nc12 (centres undefined) | > 100 µM | – | > 100 µM | > 100 µM | > 100 µM | > 100 µM | > 100 µM | > 100 µM | > 100 µM | – | – | – | – | – | – | – | – | – | – | –
CCOC(=O)C1C(=O)c2cccc(OC)c2C2COC(=O)N12 (centres undefined) | > 100 µM | > 100 µM | > 100 µM | > 100 µM | > 100 µM | > 100 µM | > 100 µM | > 100 µM | > 100 µM | – | – | – | – | – | – | – | – | – | – | –
COn1cc(C(=O)N=C(SC)SC)c2ccccc21 | 46.9 µM | > 100 µM | > 100 µM | 73.7 µM | 55.5 µM | – | 59.2 µM | 55.8 µM | > 100 µM | 20.4 µM | > 100 µM | 26.2 µM | 18.5 µM | – | 18.2 µM | 20.2 µM | 30.2 µM | 18.2 µM | 42.5 µM | 40.9 µM

Reference: PubChem BioAssay (NCI)
